From patent publication US20130231305A1, “Method of Modulating Protein 14-3-3 Functionality By Facilitating or Inhibiting Phosphorylation” (Medvet Science Pty. Ltd., priority 2010, published 2013)
Substitutions are numbered along the chain they refer to. Entries after “also recorded” stand apart in the source; their conditions may differ.

Experiments:
[1] = molecular target: T1, 14-3-3ζ S58A mutant (Homo sapiens, UniProt P63104, S58A); assay: Phosphorylation of S58A mutant 14-3-3ζ by PKA catalytic subunit; assay type: biochemical; conditions: 50 μM sphingosine; alanine substitution of Ser58
T1 construct: made in house
T1 sequence (P63104 1-245 S58A): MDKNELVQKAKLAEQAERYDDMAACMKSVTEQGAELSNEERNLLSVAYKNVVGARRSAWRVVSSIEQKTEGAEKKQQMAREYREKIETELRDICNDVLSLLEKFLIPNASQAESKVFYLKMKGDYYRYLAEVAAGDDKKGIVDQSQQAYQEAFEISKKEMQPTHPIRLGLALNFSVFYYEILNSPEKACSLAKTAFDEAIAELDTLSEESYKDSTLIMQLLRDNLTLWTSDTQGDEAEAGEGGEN
Procedure: FIG. 1 is an image depicting that sphingosine is required for 14-3-3ζ phosphorylation on Ser58 by the catalytic subunit of PKA. 14-3-3ζ (wild-type or S58A mutant) was incubated with the catalytic subunit of PKA in the presence (+) or absence (−) of 50 μM sphingosine (A) or DMS (B) delivered in 0.1% ethanol. Phosphorylated 14-3-3ζ was detected by autoradiography. Gels were coomassie stained to show equal loading of 14-3-3 substrate.
(§1) Substrate 14-3-3 (either 0.5 μg of purified recombinant 14-3-3, a […] of fractions from gel filtration or immunoprecipitates from 14-3-3ζ-Myc transfected COS cells) were added to reaction mixture comprising 0.2 Units of the PKA catalytic subunit, in the presences or absence of sphingolipid (delivered in 0.1% v/v ethanol) in PICA reaction buffer (20 mM MOPS, pH 7.4, 20 mM β-glycerol phosphate, 4 mM EGTA, 1 mM Na3VO4, 60 mM MgCl2, 1 mM DTT, 500 μM ATP, 2.4 μCi [^32P]γ-ATP). Reactions were incubated at 37° C. for 15 minutes. After incubation, reactions were separated on 12.5% SDS-PAGE, coomassie stained and 14-3-3 phosphorylation analysed by autoradiography.

[2] = molecular target: T2, 14-3-3ζ (Homo sapiens, UniProt P63104); assay: Gel filtration of 14-3-3ζ with DMS and [3H]-sphingosine; assay type: binding; conditions: co-elution in fractions 3-14; 25 μM DMS with trace [3H]-sphingosine
T2 construct: made in house
T2 sequence (P63104 1-245): T1 sequence (P63104 1-245 S58A) with A58S
Procedure: FIG. 4 is a graphical representation depicting that sphingosine binds to 14-3-3 in vitro. 10 μg of recombinant 14-3-3 was incubated for 15 minutes at room temperature in 50 μl of buffer either in the absence (FIG. A, thick line) or presence of [^3H]-sphingosine (0.5 μCi) with 25 μM DMS (thin line). After incubation, the mixtures were separated by gel filtration as described under “examples”. (A) Absorbance at 280 nm was monitored continuously to identify the elution position of 14-3-3 protein. An aliquot of each eluted fraction was analysed for (B) sphingosine-binding to 14-3-3 by measuring [^3H]-sphingosine radioactivity as determined by scintillation counting; and (C) 14-3-3 phosphorylatability by incubation with 0.2 Units of PKA catalytic subunit and [^32P]γ-ATP. Phosphorylated 14-3-3 was detected by autoradiography. The chromatography and assays were repeated twice and similar results obtained.
Recombinant 14-3-3ζ (10 μg) was pre-incubated with 25 μM […] delivered in 0.1% v/v ethanol and [^3H]-sphingosine, (0.5 μCi) and then chromatographed on a SMART system with a Superdex 200PC 3.2/30 column (Amersham Biosciences, Australia). The system was operated at 40 μl/min using 20 mM Tris-HCl pH 7.5, 150 mM NaCl, 0.1 mM DTT, 10 mM β-mercaptoethanol as running buffer. Fractions (40 μl) were collected for 60 minutes after sample injection. […]

[3] = molecular target: T2, 14-3-3ζ; assay: 14-3-3 phosphorylation by PKA catalytic subunit (autoradiography); assay type: biochemical; conditions: 50 μM lipid delivered in 0.1% ethanol
Procedure: 14-3-3ζ (wild-type or S58A mutant) was incubated with the catalytic subunit of PKA in the presence (+) or absence (−) of 50 μM sphingosine (A) or DMS (B) delivered in 0.1% ethanol. Phosphorylated 14-3-3ζ was detected by autoradiography.
The assay was carried out by incubating 14-3-g (0.5 μg) with catalytic subunit of PKA (0.2 Units) with the indicated concentration of DMS delivered in 0.1% ethanol. Reactions were separated on SDS-PAGE and phosphorylated protein detected by autoradiography. […] (B) 14-3-3ζ was incubated with the catalytic subunit of PKA and 50 μM D-erythro-sphingosine (Sph), D-erythro-trimethyl-sphingosine (TMS), D-erythro-dihydro-sphingosine (DHS), phyto-sphingosine (PSph), D-erythro-sphingosine-1-phosphate (SIP), C2-ceramide (C2-Cer), sphingomyelin (SM), spermine (Sper) or linoleic acid (LA), all delivered in 0.1% ethanol. Phosphorylated 14-3-3ζ was detected by autoradiography.
as §1

[4] = test system: 14-3-3 isoforms; assay: Phosphorylation of recombinant 14-3-3 isoforms by PKA catalytic subunit; assay type: biochemical; conditions: 50 μM in 0.1% ethanol
Procedure: FIG. 3 is an image depicting that sphingosine is required for the phosphorylation of multiple 14-3-3 isoforms in the third helix. (A) Primary sequence alignment of 14-3-3 isoforms in the third helix showing conservation of a Ser phosphorylation site (shown in bold). Asterisks indicate identical amino acids. (B) Recombinant 14-3-3 isoforms were incubated with PKA catalytic subunit in the presence of 50 μM sphingosine, dimethyl-sphingosine (DMS) or FTY 720 (FTY) delivered in 0.1% ethanol (EtOH). Phosphorylated 14-3-3s were detected by autoradiography. Gels were coomassie stained to show equal loading of 14-3-3 substrate.
as §1

[5] = published, Contreras et al. 2006; cited from earlier work
[6] = molecular target: T2, 14-3-3ζ; assay: 14-3-3 phosphorylation by PKCδCat-HA immunoprecipitates; assay type: biochemical; conditions: recombinant 14-3-3ζ, FIG. 5B
Procedure: FIG. 5 is an image depicting that DMS is required for phosphorylation of 14-3-3ζ by PKCδCat but not for activation of the kinase. COS cells were transfected with either an empty expression construct (Mock) or one encoding a HA-tagged truncated form of PKCδ corresponding to the caspase-3 cleaved protein (PKCδCat-HA). 20 hours after transfection the cells were lysed and PKCδCat-HA was immunoprecipitated using an anti-HA antibody. (A) PKC assays were carried out on the immunoprecipitates from mock (open bars) and PKCδCat-HA (shaded bars) expressing cells using Ser25 peptide as substrate with [^32P]γ-ATP in the presence or absence of 100 μM DMS (delivered in 0.1% ethanol) or 10 μM of GF109203X (GFX), the PKC inhibitor. The values represent means±S.E. of triplicate determinations. (B) PKCδCat-HA immunoprecipitates were incubated with recombinant 14-3-3ζ and [^32P]γ-ATP in the presence or absence of DMS or GF109203X (GFX). Phosphorylated 14-3-3 was detected by autoradiography after separation of SDS-PAGE (upper panel). The gel was also coomassie stained to show equal loading of 14-3-3 protein (lower panel).
Equal amounts of PKCδCat-HA immunoprecipitate were used to assay for PKC kinase activity, or to phosphorylate recombinant 14-3-3. […] Following incubation, reactions were separated on 12.5% SDS-PAGE, coomassie stained and 14-3-3 phosphorylation analysed by autoradiography.

Q: What does the source list for CCCCCCCCCCCCC/C=C/[C@@H](O)[C@@H](N)CO [sphingosine, D-erythro-sphingosine]?
A: sphingosine-dependent phosphorylation of S58A 14-3-3ζ [1]: abolished; binding of [3H]-sphingosine to 14-3-3 [2]: directly bound to 14-3-3; phosphorylation of 14-3-3ζ on Ser58 by PKA catalytic subunit [3]: not phosphorylated by PKA catalytic subunit unless sphingosine was present; also recorded: allowed phosphorylation; phosphorylation of 14-3-3 isoforms by PKA catalytic subunit [4]: all isoforms tested with the exception of 14-3-36 were phosphorylatable; critical micelle concentration [5]: 18 µM; phosphorylation of 14-3-3 by PKCδCat [6]: no phosphorylation is observed with PKCδCat unless sphingosine is present
